In ChEMBL document CHEMBL1139459, “Effects of pH on the cytotoxicity of sodium trioxodinitrate (Angeli's salt)” (J Med Chem, 2004) one finds pKa data, which are given here for one compound.

Data set [1] in a line: pK2 was determined. The format is ADME. The note with it: read-out: pK2.
Data set [2] is described as follows: pK1 was determined. The format is ADME. To be noted: read-out: pK1.

Take `[O-]/[N+](O)=N\O`: the pKa was 9.35 in data set [1] and 3 in data set [2].
